Experimental data reported in patent EP4778933A1 (Chengdu Hyperway Pharmaceuticals Co., Ltd., priority 2023, dated 2025).

What was measured:
[1] = tested on: NCI H358 (KRAS G12C); assay: 3D cell proliferation inhibition test (CellTiter-Glo 3D, 7 days), NCI H358; assay type: cell-based; settings: Homo sapiens, NCI-H358, 168 h, read-out: Inhibitory activity on cell proliferation (IC50) NCI H358 (KRAS G12C)
Protocol: (§1) The diluted compounds to be tested were added to 384-well low-adhesion KRAS mutant types (such as GP2D, NCI H358, LoVo, RKN and KP2) of cell culture plates by using a nanoliter pipetting system (LABCYTE, P-0200). Then, the cells were plated and incubated in a 37°C, 5% CO2 incubator for 7 days. Afterward, CellTiter-Glo® 3D reagent was added, and the luminescent values were read by an Envision multifunctional microplate reader (the luminescent signal is proportional to the amount of ATP in the system, and the ATP content directly represents the number of viable cells in the system). Finally, the IC50 values (half-maximal inhibitory concentration) of the compounds were obtained by the XLFIT software using the nonlinear fitting formula.
(§2) • a) The diluted compounds to be tested were added to 384-well low-adhesion KRAS mutant types of cell culture plates by using a nanoliter pipetting system. • b) Cells were seeded into the 384-well plates in a) and then centrifuged at 1000 rpm for 1 min at room temperature, with a final DMSO concentration of compound being 0.5%. The plates were then incubated in a 5% CO2 constant-temperature incubator at 37°C for 7 days. • c) CellTiter-Glo® 3D was added to the 384-well cell culture plates in b), shaken in the dark, and incubated at room temperature. • d) The luminescence values were read by using an Envision multifunctional microplate reader. […]

[2] = tested on: RKN (KRAS G12V); assay: 3D cell proliferation inhibition test (CellTiter-Glo 3D, 7 days), RKN; assay type: cell-based; settings: 168 h, read-out: Inhibitory activity on cell proliferation (IC50) RKN (KRAS G12V)
Protocol: as §1
• a) The diluted compounds to be tested were added to 384-well low-adhesion KRAS mutant types of cell culture plates by using a nanoliter pipetting system. • b) Cells were seeded into the 384-well plates in a) and then centrifuged at 1000 rpm for 1 min at room temperature, with a final DMSO concentration of compound being 0.5%. The plates were then incubated in a 5% CO2 constant-temperature incubator at 37°C for 7 days. • c) CellTiter-Glo® 3D was added to the 384-well cell culture plates in b), shaken in the dark, and incubated at room temperature. • d) The luminescence values were read by using an Envision multifunctional microplate reader.
The IC50 (half-maximal inhibitory concentration) values of the compounds were obtained by using XLFIT software according to the following nonlinear fitting formula: Y = Bottom + (Top−Bottom)/(1+10^(∧)((LogIC50−X)×HillSlope)) [formula] • X: log value of compound concentration. • Y: inhibition rate (%) [formula] • Negative control: DMSO. • Positive control: Medium only.

[3] = tested on: KP2 (KRAS G12R); assay: 3D cell proliferation inhibition test (CellTiter-Glo 3D, 7 days), KP2; assay type: cell-based; settings: 168 h, read-out: Inhibitory activity on cell proliferation (IC50) KP2 (KRAS G12R)
Protocol: as §1, §2

[4] = In vivo pharmacokinetic test in mice; settings: 30 mg/kg, female BALB/c mice, single dose 30 mg/kg, plasma
Protocol: (§3) Each test compound was administered orally once to female BALB/c mice for pharmacokinetic study. The test compounds were prepared on the day of administration. The oral administration solvent: 50 mM sodium citrate (pH 5.0) + 10% captisol. The oral administration was conducted in a dose of 30 mg/kg. The animals were fasted for 10-14 h before oral administration, and the feeding was resumed 4 h after administration. Pharmacokinetic samples were collected through the orbit. The collection time points were: 15 min, 30 min, 1 h, 2 h, 4 h, 6 h, 8 h and 24 h after administration. Three whole blood samples were collected at each time point, with a collection volume of about 0.2 mL, and anticoagulated with sodium heparin. After blood samples were collected, they were immediately placed on ice and centrifuged within 1 h to isolate plasma (centrifugation conditions: 8000 rpm, 1 min, 2-8°C). The collected plasma was stored in a -20°C refrigerator before analysis. The concentrations of compounds in the plasma samples were determined using an LC-MS/MS analysis method.

[5] = In vivo pharmacokinetic test in rats; set-up: species or system SD Rats; settings: male rats; for F: oral 30 mg/kg vs intravenous; for AUC / Cmax: rat, oral, single dose 30 mg/kg, plasma
Protocol: as §3, with “once to male […] rats” for “once to female BALB/c mice”, “male BALB/c rats for pharmacokinetic” for “female BALB/c mice for pharmacokinetic”, “administration. The intravenous administration solvent: 5% DMSO + 10% solutol + 85% saline; and the oral administration” for “administration. The oral administration”, “points were: 5 min (intravenous administration), 15 min,” for “points were: 15 min,”, “analysis method. Table 4: Pharmacokinetic test results of some compounds in SD Rats” for “analysis method.”

Structure (SMILES) | IC50 [1] [nM] | IC50 [2] [nM] | IC50 [3] [nM] | AUC ([4]; mouse, in vivo, po, read-out: AUC) [ng·h/mL] | Cmax ([4]; mouse, in vivo, po, read-out: Cmax) [ng/mL] | F [5] [%] | AUC ([5]; in vivo) [ng·h/mL] | Cmax ([5]; in vivo) [ng/mL] | AUC ([4]; oral) [ng·h/mL] | Cmax ([4]; oral) [ng/mL] | AUC ([5]; Sprague-Dawley (SD)) [ng·h/mL] | Cmax ([5]; Sprague-Dawley (SD)) [ng/mL]
CC1(O)COCCN(c2nc(OCC34CCCN3C(c3cc(F)c(F)c(F)c3)CC4)nc3c(F)c(-c4cccc5sc(N)c(C#N)c45)c(Br)cc23)C1 (single isomer, unassigned) [Example 26, 2-amino-4-[6-bromo-8-fluoro-4-(6-hydroxy-6-methyl-1,4-oxazepan-4-yl)-2-({[3-(3,4,5-trifluoropheny 1)-2,3,5,6,7,7a-hexahydro-1H-pyrrolizin-7a-yl]methyl}oxy)quinazolin-7-yl]benzo[b]thiophene-3-carb onitrile] | 1.03 | 4.32 | 56.6 | 15800 | 4880 | 22.3 | 12400 | 1190 |  |  |  | 
CC1(O)COCCN(c2nc(OCC34CCCN3C(c3cc(F)c(F)c(F)c3)CC4)nc3c(F)c(-c4cccc5sc(N)c(C#N)c45)c(I)cc23)C1 (single isomer, unassigned) [Example 31, 2-amino-4-[6-iodo-8-fluoro-4-(6-hydroxy-6-methyl-1,4-oxazepan-4-yl)-2-({[3-(3,4,5-trifluorophenyl)-2,3,5,6,7,7a-hexahydro-1H-pyrrolizin-7a-yl]methyl}oxy)quinazolin-7-yl]benzo[b]thiophene-3-carbonitrile] | 0.69 | 3.69 | 59.1 |  |  | 21.5 |  |  | 20953 | 5124 | 11300 | 1030
